# Measured values as given in BindingDB's records for doi:10.1016/0028-3908(96)84644-2 (Abbott Laboratories, 1996).
# “And” between values parts separate entries of the source, which are not always exact repeats. Identical values can stand only once.
# Key:
# [1] = biological target: Acetylcholine receptor subunit alpha (Rattus norvegicus, UniProt P25108)
# [2] = biological target: Voltage-dependent T-type calcium channel subunit alpha-1H (Homo sapiens, UniProt O95180)
# Protein kinase C = Protein kinase C (Drosophila melanogaster, UniProt P13678)
# Sequence of Protein kinase C (P13678 whole entry): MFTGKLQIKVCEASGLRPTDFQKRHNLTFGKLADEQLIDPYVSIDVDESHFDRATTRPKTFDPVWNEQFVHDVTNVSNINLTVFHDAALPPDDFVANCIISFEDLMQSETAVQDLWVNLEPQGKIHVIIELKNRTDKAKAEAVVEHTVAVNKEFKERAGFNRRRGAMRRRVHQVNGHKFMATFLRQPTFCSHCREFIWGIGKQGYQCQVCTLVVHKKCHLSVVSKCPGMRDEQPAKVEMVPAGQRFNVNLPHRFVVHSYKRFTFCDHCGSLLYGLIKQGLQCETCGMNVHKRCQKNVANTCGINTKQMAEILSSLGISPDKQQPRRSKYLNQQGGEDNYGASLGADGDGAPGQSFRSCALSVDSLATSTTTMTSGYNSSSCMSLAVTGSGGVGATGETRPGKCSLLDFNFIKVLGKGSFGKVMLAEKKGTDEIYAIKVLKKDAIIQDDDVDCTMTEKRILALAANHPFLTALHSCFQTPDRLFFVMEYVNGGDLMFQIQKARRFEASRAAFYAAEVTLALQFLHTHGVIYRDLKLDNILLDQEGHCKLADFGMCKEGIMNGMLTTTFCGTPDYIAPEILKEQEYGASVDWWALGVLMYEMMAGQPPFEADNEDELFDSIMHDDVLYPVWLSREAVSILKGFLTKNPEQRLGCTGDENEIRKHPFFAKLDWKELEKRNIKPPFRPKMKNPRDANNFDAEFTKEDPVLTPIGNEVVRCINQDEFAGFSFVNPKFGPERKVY
# [3] = biological target: 5-hydroxytryptamine receptor 1B (Canis lupus familiaris, UniProt P79250)
# [4] = biological target: Glutamate receptor ionotropic, kainate 2 (Homo sapiens, UniProt Q13002)
# [5] = biological target: Sodium channel protein type 2 subunit alpha (Homo sapiens, UniProt Q99250)
# Sequence of Sodium channel protein type 2 subunit alpha (Q99250 whole entry): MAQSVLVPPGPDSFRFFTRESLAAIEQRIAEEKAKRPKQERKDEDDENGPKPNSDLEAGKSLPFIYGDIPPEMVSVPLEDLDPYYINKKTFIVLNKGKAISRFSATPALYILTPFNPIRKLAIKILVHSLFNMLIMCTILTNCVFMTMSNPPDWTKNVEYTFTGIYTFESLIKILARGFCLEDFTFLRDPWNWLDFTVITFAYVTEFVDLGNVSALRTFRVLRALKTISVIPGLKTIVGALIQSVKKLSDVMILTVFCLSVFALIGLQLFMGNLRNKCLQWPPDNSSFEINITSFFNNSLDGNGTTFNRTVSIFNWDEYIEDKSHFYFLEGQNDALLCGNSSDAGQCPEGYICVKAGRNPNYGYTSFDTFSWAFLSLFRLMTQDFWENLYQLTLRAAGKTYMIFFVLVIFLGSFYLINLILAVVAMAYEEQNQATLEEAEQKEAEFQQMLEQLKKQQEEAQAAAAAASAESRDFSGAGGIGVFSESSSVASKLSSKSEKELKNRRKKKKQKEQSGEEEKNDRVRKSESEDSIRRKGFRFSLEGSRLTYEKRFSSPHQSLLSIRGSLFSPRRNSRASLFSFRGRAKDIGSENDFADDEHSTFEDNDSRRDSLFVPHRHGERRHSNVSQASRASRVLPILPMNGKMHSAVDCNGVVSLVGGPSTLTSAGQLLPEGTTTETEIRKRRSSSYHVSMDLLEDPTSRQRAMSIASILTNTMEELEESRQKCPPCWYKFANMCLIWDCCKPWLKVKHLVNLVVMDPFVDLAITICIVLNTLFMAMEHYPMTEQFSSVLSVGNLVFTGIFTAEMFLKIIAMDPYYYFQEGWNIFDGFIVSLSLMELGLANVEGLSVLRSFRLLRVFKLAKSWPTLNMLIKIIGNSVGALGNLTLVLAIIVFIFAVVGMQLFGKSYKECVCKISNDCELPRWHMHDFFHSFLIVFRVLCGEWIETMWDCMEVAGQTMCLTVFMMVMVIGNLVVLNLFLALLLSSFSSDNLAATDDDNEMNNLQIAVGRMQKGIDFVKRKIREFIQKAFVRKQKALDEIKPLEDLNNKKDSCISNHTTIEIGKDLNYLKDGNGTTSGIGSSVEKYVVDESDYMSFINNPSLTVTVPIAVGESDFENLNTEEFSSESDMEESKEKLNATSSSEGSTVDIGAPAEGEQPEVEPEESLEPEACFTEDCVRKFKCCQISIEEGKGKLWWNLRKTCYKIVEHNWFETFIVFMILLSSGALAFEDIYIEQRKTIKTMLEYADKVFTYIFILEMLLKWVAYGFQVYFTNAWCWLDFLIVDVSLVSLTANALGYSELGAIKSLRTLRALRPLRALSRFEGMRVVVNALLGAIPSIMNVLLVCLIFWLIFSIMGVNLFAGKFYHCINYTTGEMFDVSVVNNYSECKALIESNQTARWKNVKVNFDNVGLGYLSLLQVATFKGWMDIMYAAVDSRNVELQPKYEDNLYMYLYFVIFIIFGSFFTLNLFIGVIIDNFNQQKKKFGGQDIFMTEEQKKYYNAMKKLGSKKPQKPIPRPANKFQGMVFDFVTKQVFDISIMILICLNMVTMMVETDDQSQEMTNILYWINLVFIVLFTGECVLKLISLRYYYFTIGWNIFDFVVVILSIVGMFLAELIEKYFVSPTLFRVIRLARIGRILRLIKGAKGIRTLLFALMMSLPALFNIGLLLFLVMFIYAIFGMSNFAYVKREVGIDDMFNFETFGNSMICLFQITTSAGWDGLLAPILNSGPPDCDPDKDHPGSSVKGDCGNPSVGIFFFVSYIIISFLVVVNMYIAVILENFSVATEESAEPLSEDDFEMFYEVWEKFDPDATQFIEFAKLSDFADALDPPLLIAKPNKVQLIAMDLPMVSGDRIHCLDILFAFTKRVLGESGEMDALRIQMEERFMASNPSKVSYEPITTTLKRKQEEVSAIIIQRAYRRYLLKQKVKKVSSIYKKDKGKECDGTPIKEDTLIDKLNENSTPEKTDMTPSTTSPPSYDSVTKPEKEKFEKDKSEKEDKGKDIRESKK
# Beta-nerve growth factor = Beta-nerve growth factor (Homo sapiens, UniProt P01138)
# [6] = biological target: Voltage-dependent N-type calcium channel subunit alpha-1B (Rattus norvegicus, UniProt Q02294)
# Substance-P receptor = Substance-P receptor (Homo sapiens, UniProt P25103)
# [7] = biological target: Beta-2 adrenergic receptor (Mus musculus, UniProt P18762)
# [8] = biological target: Adrenergic alpha2 receptor (Mesocricetus auratus, UniProt Q60533)
# Mu-type opioid receptor = Mu-type opioid receptor (Rattus norvegicus, UniProt P33535)
# Somatostatin = Somatostatin (Rattus norvegicus, UniProt P60042)
# [9] = biological target: Neuronal acetylcholine receptor subunit alpha-4 (Homo sapiens, UniProt P43681)
# [10] = biological target: Solute carrier family 22 member 1 (Rattus norvegicus, UniProt Q63089)
# [11] = biological target: Gamma-aminobutyric acid receptor subunit alpha-1 (Homo sapiens, UniProt P14867)
# [12] = biological target: Chloride channel protein 1 (Homo sapiens, UniProt P35523)
# [13] = biological target: Putative choline uptake ABC transporter permease protein (Rhizobium meliloti (strain 1021), UniProt Q92V96)
# [14] = biological target: 5-hydroxytryptamine receptor 2C (Homo sapiens, UniProt P28335)
# Sequence of 5-hydroxytryptamine receptor 2C (P28335 whole entry): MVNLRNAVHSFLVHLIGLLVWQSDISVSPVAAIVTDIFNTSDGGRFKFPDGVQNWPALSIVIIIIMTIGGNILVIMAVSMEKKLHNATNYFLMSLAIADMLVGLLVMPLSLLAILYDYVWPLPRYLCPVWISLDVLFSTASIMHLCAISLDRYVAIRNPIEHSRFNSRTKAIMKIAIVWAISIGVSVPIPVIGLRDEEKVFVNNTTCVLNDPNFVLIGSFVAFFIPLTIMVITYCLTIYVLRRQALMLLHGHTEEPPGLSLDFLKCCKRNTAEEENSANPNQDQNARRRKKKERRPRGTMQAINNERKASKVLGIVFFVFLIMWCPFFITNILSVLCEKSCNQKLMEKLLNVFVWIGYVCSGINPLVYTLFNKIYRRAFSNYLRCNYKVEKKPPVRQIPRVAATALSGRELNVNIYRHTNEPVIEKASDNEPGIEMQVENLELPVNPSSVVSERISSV
# [15] = biological target: Kappa-type opioid receptor (Homo sapiens, UniProt P41145)
# [16] = biological target: 5-hydroxytryptamine receptor 1A/1B/1D/2C (Homo sapiens, UniProt P08908+P28221+P28222+P28335)
# Adenosine receptor A1 = Adenosine receptor A1 (Homo sapiens, UniProt P30542)
# [17] = biological target: Gamma-aminobutyric acid type B receptor subunit 1 (Homo sapiens, UniProt Q9UBS5)
# GLRA1 protein = GLRA1 protein (Homo sapiens, UniProt Q14C71)
# [18] = biological target: Potassium voltage-gated channel subfamily A member 1 (Homo sapiens, UniProt Q09470)
# [19] = biological target: Sodium-dependent noradrenaline transporter (Homo sapiens, UniProt P23975)
# [20] = biological target: Sodium-dependent dopamine transporter (Homo sapiens, UniProt Q01959)
# [21] = biological target: Gamma-aminobutyric acid type B receptor subunit 1 (UniProt Q9Z0U4)
# Glutamate receptor 3 = Glutamate receptor 3 (Homo sapiens, UniProt P42263)
# Sequence of Glutamate receptor 3 (P42263 whole entry): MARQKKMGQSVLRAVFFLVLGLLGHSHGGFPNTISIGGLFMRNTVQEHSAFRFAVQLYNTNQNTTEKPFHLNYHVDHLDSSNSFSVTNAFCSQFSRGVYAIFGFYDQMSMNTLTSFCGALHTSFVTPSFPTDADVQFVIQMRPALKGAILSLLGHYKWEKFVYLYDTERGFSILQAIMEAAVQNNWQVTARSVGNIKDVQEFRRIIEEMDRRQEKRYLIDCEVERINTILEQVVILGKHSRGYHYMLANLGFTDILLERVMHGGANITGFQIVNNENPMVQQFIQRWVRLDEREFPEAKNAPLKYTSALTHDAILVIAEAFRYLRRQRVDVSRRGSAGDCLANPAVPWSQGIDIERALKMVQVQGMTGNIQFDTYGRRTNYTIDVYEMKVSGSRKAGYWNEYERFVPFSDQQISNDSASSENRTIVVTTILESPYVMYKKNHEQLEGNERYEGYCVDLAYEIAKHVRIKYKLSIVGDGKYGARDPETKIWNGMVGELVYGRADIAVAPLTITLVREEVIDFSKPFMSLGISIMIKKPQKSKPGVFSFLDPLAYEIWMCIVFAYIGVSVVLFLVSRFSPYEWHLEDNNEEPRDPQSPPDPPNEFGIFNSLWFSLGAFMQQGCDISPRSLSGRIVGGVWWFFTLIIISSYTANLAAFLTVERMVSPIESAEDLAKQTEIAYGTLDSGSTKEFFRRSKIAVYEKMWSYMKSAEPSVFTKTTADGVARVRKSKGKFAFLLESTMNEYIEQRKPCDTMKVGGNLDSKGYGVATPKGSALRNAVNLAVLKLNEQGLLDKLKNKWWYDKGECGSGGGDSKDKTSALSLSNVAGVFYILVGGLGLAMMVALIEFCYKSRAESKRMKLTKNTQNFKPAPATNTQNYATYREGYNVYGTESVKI
# [22] = biological target: 5-hydroxytryptamine receptor 1A (Homo sapiens, UniProt P08908)
# [23] = biological target: Neuronal acetylcholine receptor subunit alpha-7 (Homo sapiens, UniProt P36544)
# Sequence of Neuronal acetylcholine receptor subunit alpha-7 (P36544 whole entry): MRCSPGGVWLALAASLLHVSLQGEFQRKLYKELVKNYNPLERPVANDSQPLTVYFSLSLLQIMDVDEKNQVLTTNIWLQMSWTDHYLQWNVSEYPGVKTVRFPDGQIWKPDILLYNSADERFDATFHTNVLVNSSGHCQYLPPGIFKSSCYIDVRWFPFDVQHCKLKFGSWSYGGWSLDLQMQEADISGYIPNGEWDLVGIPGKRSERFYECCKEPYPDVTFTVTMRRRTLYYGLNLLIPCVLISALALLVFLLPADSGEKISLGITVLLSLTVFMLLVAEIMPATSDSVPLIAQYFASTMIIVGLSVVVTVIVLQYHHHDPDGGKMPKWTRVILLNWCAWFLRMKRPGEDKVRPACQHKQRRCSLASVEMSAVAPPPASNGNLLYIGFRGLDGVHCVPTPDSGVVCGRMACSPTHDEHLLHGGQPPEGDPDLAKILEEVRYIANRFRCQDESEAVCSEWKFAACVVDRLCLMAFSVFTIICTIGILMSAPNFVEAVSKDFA
# [24] = biological target: Delta-type opioid receptor (Homo sapiens, UniProt P41143)
# Substance-K receptor = Substance-K receptor (Bos taurus, UniProt P05363)
# Neuromedin-K receptor = Neuromedin-K receptor (Homo sapiens, UniProt P29371)
# [25] = biological target: ATP-sensitive inward rectifier potassium channel 11 (Homo sapiens, UniProt Q14654)
# D(2) dopamine receptor = D(2) dopamine receptor (Homo sapiens, UniProt P14416)
# Apamin = Apamin (Apis mellifera, UniProt P01500)
# [26] = biological target: Glutamate receptor ionotropic, NMDA 1 (Rattus norvegicus, UniProt P35439)
# Adenosine receptor A2a = Adenosine receptor A2a (Homo sapiens, UniProt P29274)
# Sequence of Acetylcholine receptor subunit alpha (P25108 whole entry): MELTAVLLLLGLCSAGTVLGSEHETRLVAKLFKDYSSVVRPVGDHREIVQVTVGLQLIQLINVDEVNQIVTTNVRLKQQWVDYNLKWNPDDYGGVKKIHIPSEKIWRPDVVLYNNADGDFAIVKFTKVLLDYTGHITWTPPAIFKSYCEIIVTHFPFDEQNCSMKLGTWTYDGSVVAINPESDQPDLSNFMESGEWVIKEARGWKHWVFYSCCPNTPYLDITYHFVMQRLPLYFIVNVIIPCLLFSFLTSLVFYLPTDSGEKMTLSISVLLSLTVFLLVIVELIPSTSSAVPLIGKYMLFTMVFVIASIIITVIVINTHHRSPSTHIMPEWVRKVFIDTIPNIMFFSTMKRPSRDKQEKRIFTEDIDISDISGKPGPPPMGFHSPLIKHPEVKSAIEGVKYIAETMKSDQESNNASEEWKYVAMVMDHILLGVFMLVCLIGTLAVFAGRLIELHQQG
structure (smiles),measurement,setting,value
"CN1CCC[C@H]1c1cccnc1 [(R,S)-nicotine]",Ki,[1],> 10 µM
c1cncc(OC[C@@H]2CCN2)c1,Ki,[2],> 10 µM
same,Ki,Protein kinase C,> 10 µM
same,Ki,[3],> 10 µM
same,Ki,[4],> 10 µM
same,Ki,[5],> 10 µM
same,Ki,Beta-nerve growth factor,> 10 µM
same,Ki,[6],> 10 µM
same,Ki,Substance-P receptor,> 10 µM
same,Ki,[7],> 10 µM
same,Ki,[1],0.384 µM and 0.314 µM
same,Ki,[8],> 10 µM
same,Ki,Mu-type opioid receptor,> 10 µM
same,Ki,Somatostatin,> 10 µM
same,Ki,[9],0.04 nM
same,Ki,[10],> 10 µM
same,Ki,[11],> 10 µM
same,Ki,[12],> 10 µM
same,Ki,[13],> 10 µM
same,Ki,[14],> 10 µM
same,Ki,[15],> 10 µM
same,Ki,[16],> 10 µM
same,Ki,Adenosine receptor A1,> 10 µM
same,Ki,[17],> 10 µM
same,Ki,GLRA1 protein,> 10 µM
same,Ki,[18],> 10 µM
same,Ki,[19],> 10 µM
same,Ki,[20],> 10 µM
same,Ki,[21],> 10 µM
same,Ki,Glutamate receptor 3,> 10 µM
same,Ki,[22],> 10 µM
same,Ki,[23],1.27 µM and 0.148 µM
same,Ki,[24],> 10 µM
same,Ki,Substance-K receptor,> 10 µM
same,Ki,Neuromedin-K receptor,> 10 µM
same,Ki,[25],> 10 µM
same,Ki,D(2) dopamine receptor,> 10 µM
same,Ki,Apamin,> 10 µM
same,Ki,[26],> 10 µM
same,Ki,Adenosine receptor A2a,> 10 µM
